Assay results as given in patent EP2698367A1, “Benzimidazoles for the treatment of cancer” (Max-Planck-Gesellschaft zur Förderung der Wissenschaften …, priority 2012, dated 2014).
Read-outs that look alike come from different tables or passages of the source.

Columns and labels:
PDEδ farnesyl pocket = PDEδ farnesyl pocket (Homo sapiens, UniProt O43924); test: Displacement titrations of labeled probe (fluorescence polarization) for the determination of KD values; assay type: binding
Description: The resulting solution was serially diluted, holding the concentrations of S54, PDEδ and DMSO constant. The sealed plates were shaken overnight at room temperature and centrifuged at the beginning of the next day. […] For the fitting of the data to a competition model the exact mathematical solution derived from the law of mass action was used as described by Roehrl et al.^3 Fraction bound data was fit using KD2 as the only fitting parameter and total ligand concentration as independent variable (OriginPro8.6, function codec from origin). [formula] • FSB: Fraction bound of fluorescent probe • KD1: Binding constant of fluorescent Probe determined from direct titration • KD2: Fitting parameter (Binding constant of unlabeld competitor) • LST: Total concentration of unlabeld small molecule competitor • RT: Total protein concentration
For the fitting of data to a competition model with cooperative binding of two benzimidazole fragments the program Scientist 3.0 was used. An experimental system was defined as a series of partial equations including the equilibrium relationships between the various species. Anisotropy data was converted to fraction bound and fitting was carried out in anlogy to a previously described set of equilibrium relationships by Goody and coworkers.^4. KD1 = ([A][PDEDf])/([APDED]) [formula] KD2 = ([L^2][PDEDf])/([LPDED]) [formula] • A:equilibrium conentration of free fluorophore • L: equilibrium concentration of free ligand • APDED: equilibrium concentration of bound fluorescent probe • LPDED: equilibrium conentration of bound small molecule • PDEDf: equilibrium conentration of free protein This model was used (together with equations describing the mass balance) to numerically simulate the FSB of fluorophore and compared with the experimental data.
Scientist input file: • // Micromath Scientist Model File • IndVars: LST • DepVars: A,L,APDED,LPDED,PDEDf,FSB • Params: ATOT,PDED,KD1,KD2 • LPDED= L^2*PDEDf/KD2 • APDED=A*PDEDf/KD1 • ATOT=A+APDED • LST=L+LPDED • PDED=PDEDf+APDED+LPDED • 0<A<ATOT • 0<L<LST • 0<PDEDf<PDED • FSB=1-A/ATOT • LST=0
The activity of the compounds was classified according to their Kd for the PDEδ farnesyl pocket into the following ranges: […]

[1] = test system: mCherry-K-Ras in Panc1 cells; test: Time series of mCherry-K-Ras redistribution in Panc1 cells; assay type: cell-based, human; conditions: 5µM
[2] = test system: mCherry-K-Ras in PancTul cells; test: Time series of mCherry-K-Ras redistribution in PancTul cells; assay type: cell-based, human; conditions: 5µM
Erk = test: Western blot of ERK signaling (Erk phosphorylation) in PANC-TUI cells; assay type: cell-based, human; conditions: 5 µM, EGF, measured by phosphorylation
PANC-TUI cells = test: Real time cell analysis (RTCA) of PANC-TUI cell proliferation; assay type: cell-based, human; conditions: 5µM, K-Ras dependent pancreatic tumor cell
Description: To address whether the novel compounds that target the farnesyl binding pocket in PDEδ inhibit the interaction between PDEδ and Ras family proteins in live cells, fluorescence lifetime imaging microscopy (FLIM)-based quantitative fluorescence resonance energy transfer (FRET) measurements were carried out. […] Figure 4: Real time cell analysis (RTCA) of PANC-TUI cell proliferation. PANC-TUI is a K-Ras dependent pancreatic tumor cell.

[3] = target: interaction of Rheb with PDEδ (Homo sapiens, UniProt O43924); conditions: 5 µM, live MDCK cells, measured by FLIM
Description: To address whether the novel compounds that target the farnesyl binding pocket in PDEδ inhibit the interaction between PDEδ and Ras family proteins in live cells, fluorescence lifetime imaging microscopy (FLIM)-based quantitative fluorescence resonance energy transfer (FRET) measurements were carried out. These experiments allow the quantitative determination of the fraction (α) of interacting mCitrine (a yellow fluorescent protein) tagged Ras proteins with mCherry (a red fluorescent protein) tagged PDEδ in living cells by the change in the fluorescence lifetime (τav) of the mCitrine fused to Ras. mCitrine-Rheb was selected as the farnesylated Ras family protein due to its more clearly measurable interaction with mCherry-PDEδ in live cells.
All cells were routinely maintained in MEM Eagle's medium supplemented with 10% FBS, 1% non-essential amino acids and 1% L-glutamine. […]
Fluorescence lifetime images were acquired using a confocal laser scanning microscope (FV1000, Olympus) equipped with a time-correlated single-photon counting module (LSM Upgrade Kit, Picoquant). […] Photons were detected using a single-photon counting avalanche photodiode (PDM Series, MPD) and timed using a single-photon counting module (PicoHarp 300, Picoquant).

CAPAN-1 cells = test: Real time cell analysis (RTCA) of CAPAN-1 cells; assay type: cell-based; conditions: 5µM, K-Ras dependent pancreatic tumor cell
[4] = Kd for the PDEδ farnesyl pocket, read-out: KD

Chain of PDEδ farnesyl pocket (O43924 whole entry): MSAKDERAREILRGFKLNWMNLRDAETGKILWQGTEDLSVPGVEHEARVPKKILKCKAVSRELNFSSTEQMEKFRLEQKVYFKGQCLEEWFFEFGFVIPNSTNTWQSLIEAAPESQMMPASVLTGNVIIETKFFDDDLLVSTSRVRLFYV
Chain of interaction of Rheb with PDEδ (O43924 whole entry): as above

Kd (PDEδ farnesyl pocket; [4]) [nM] | Compound | also measured
– | O=C(NCCCN1CCN(c2ccc(O)cc2)CC1)C1CCN(c2nc3ccccc3n2Cc2cccc(F)c2)CC1 [Compound 18] | Kd (PDEδ farnesyl pocket; read-out: KD): 100 to 1000 nM
> 1000 | Cc1ccccc1Cn1c(N2CCC(C(=O)O)CC2)nc2ccccc21 [Compound 22] | –
> 1000 | c1ccc(C2Nc3ccccc3-c3nc4ccccc4n32)nc1 (stereo not drawn) [Compound 02, 6-Pyiridyl-5,6-dihydrobenzo[4-5]imidazo[1,2-c]quinazoline] | –
100 to 1000 | Cc1ccccc1Cn1c(N2CCC(C(=O)NCCCN3CC(C)CC(C)C3)CC2)nc2ccccc21 (stereo not drawn) [Compound 25] | –
> 1000 | CC1CCCN(C(=O)C2CCN(c3nc4ccccc4n3Cc3cccc(F)c3)CC2)C1 (stereo not drawn) [Compound 23] | –
> 1000 | OCC(C1CCCCC1)n1c(-c2ccccc2)nc2ccccc21 (stereo not drawn) [Compound S16, 2-Cyclohexyl-2-(2-phenyl-1H-benzo[d]imidazol-1-yl)ethanol] | –
25 to 100 | CCOc1ccc(CNC(=O)C2CCN(c3nc4ccccc4n3Cc3ccc(F)cc3)CC2)cc1 [Compound 20] | –
> 1000 | C=CCOc1ccc(-c2nc3ccccc3n2Cc2ccccc2)cc1 [Compound S02, 2-(4-(Allyloxy)phenyl)-1-benzyl-1H-benzo[d]imidazole] | –
100 to 1000 | C=C(C)Cn1c(-c2ccc(N(C)C)cc2)nc2ccccc21 [Compound 14] | –
100 to 1000 | Cc1ccc(NC(=O)N2CCN(c3nc4ccccc4n3Cc3ccccc3)CC2)c(C)c1 [Compound 44] | –
100 to 1000 | Cc1ccc(-c2nc3ccccc3n2Cc2ccc(F)cc2)o1 [Compound 42] | –
> 1000 | C#CCn1c(-c2ccccc2Br)nc2ccccc21 [Compound 38] | –
> 1000 | Cc1ccccc1Cn1c(Cc2ccccc2)nc2ccccc21 [Compound 28] | –
> 1000 | Cc1cccc(-c2nc3ccccc3n2CCc2ccccc2)c1 [Compound 36] | –
> 1000 | C=CCOc1ccc(-c2nc3ccccc3n2Cc2ccccn2)cc1 [Compound S03, 2-(4-(Allyloxy)phenyl)-1-(pyridin-2-ylmethyl)-1H-benzo[d]imidazole] | –
100 to 1000 | Clc1cccc(Cn2c(-c3ccco3)nc3ccccc32)c1 [Compound 39] | –
100 to 1000 | CCCCc1nc2ccccc2n1Cc1ccc(Cl)cc1 [Compound 29] | –
100 to 1000 | COc1ccc(-c2nc3ccccc3n2Cc2c(F)cccc2Cl)cc1 [Compound 50] | –
> 1000 | Cc1ccc(C)c(Cn2c(CCNC(=O)CCCC(C)O)nc3ccccc32)c1 (stereo not drawn) [Compound 47] | –
100 to 1000 | O=C(NCCN1CCCC1)C1CCN(c2nc3ccccc3n2Cc2ccccc2F)CC1 [Compound 17] | –
> 1000 | CCC(CC)c1nc2ccccc2n1Cc1ccccc1 [Compound 30] | –
– | c1ccc(Cn2c(-c3ccc(OC[C@H](C4CCNCC4)n4c(-c5ccccc5)nc5ccccc54)cc3)nc3ccccc32)cc1 [(S)-9, (S)-1-Benzyl-2-(4-(2-(2-phenyl-1H-benzo[d]imidazol-1-yl)-2-(piperidin-4-yl)ethoxy)phenyl)-1H-benzo[d]imidazole] | mCherry-K-Ras redistribution [1]: loss of K-Ras spatial organization; mCherry-K-Ras redistribution [2]: loss of K-Ras spatial organization; activation of Erk (Erk): attenuated activation of Erk; PANC-TUI cell proliferation (PANC-TUI cells): stopped proliferating and underwent cell death within a few hours; interaction between mCitrine-Rheb and mCherry-PDEδ [3]: more rapidly (within one minute) and more strongly reduced; Proliferation of CAPAN-1 cells (CAPAN-1 cells): inhibited strongly
100 to 1000 | c1ccc(Cn2c(-c3ccc(OCCn4c(-c5ccccc5)nc5ccccc54)cc3)nc3ccccc32)cc1 [Compound 06, 1-Benzyl-2-(4-(2-(2-phenyl-1H-benzo[d]imidazol-1-yl)ethoxy)phenyl)-1H-benzo[d]imidazole] | –
– | CC(C)CCn1c(CC(C)(C)C)nc2ccccc21 [Compound 35] | Kd (PDEδ farnesyl pocket): 100 to 1000 nM
100 to 1000 | COc1ccccc1OCc1nc2ccccc2n1Cc1ccccc1Cl [Compound 13] | –
– | Oc1ccc(Cn2c(-c3ccc(O)cc3)nc3ccccc32)cc1 [Compound 15] | Kd (PDEδ farnesyl pocket): 25 to 100 nM

Kd (PDEδ farnesyl pocket; [4]) [nM] | Compound | also measured
100 to 1000 | CCCC(O)c1nc2ccccc2n1Cc1c(F)cccc1Cl (stereo not drawn) [Compound 41] | –
100 to 1000 | Cc1ccc(OCc2nc3ccccc3n2C(C)c2ccccc2)cc1 (stereo not drawn) [Compound 16] | –
100 to 1000 | COc1cccc(CNC(=O)C2CCN(c3nc4ccccc4n3Cc3ccccc3C)CC2)c1 [Compound 19] | –
> 1000 | Fc1ccc(Cn2c(-c3cccc(Br)c3)nc3ccccc32)cc1 [Compound 43] | –
100 to 1000 | Oc1ccc(-c2nc3ccccc3n2Cc2ccc(F)cc2)cc1 [Compound S09, 4-(1-(4-Fluorobenzyl)-1H-benzo[d]imidazol-2-yl)phenol] | –
> 1000 | O=C(NCCO)C(c1ccccc1)n1c(-c2ccccc2)nc2ccccc21 (stereo not drawn) [Compound 51] | –
25 to 100 | Ic1ccc(Cn2c(-c3ccc(I)o3)nc3ccccc32)o1 [Compound 48] | –
> 1000 | C=CCOc1ccc(-c2nc3ccccc3n2Cc2ccccc2C)cc1 [Compound S04, 2-(4-(Allyloxy)phenyl)-1-(2-methylbenzyl)-1H-benzo[d]imidazole] | –
> 1000 | COc1cccc(C(=O)C=Cc2nc3ccccc3n2Cc2ccccc2)c1 [Compound 49] | –
100 to 1000 | COc1cc(OC)cc(C(=O)N2CCN(c3nc4ccccc4n3Cc3ccccc3)CC2)c1 [Compound 45] | –
25 to 100 | CC(C)Cc1nc2ccccc2n1Cc1c(F)cccc1Cl [Compound 37] | –
100 to 1000 | C=C(C)Cn1c(CC(C)C)nc2ccccc21 [Compound 31] | –
100 to 1000 | CCc1nc2ccccc2n1Cc1ccccc1F [Compound 33] | –
100 to 1000 | O=C(NCc1ccccc1)C(C1CCCCC1)n1c(-c2ccccc2)nc2ccccc21 (stereo not drawn) [Compound S12, N-Benzyl-2-cyclohexyl-2-(2-phenyl-1H-benzo[d]imidazol-1-yl)acetamide] | –
100 to 1000 | C=CCOc1ccc(-c2nc3ccccc3n2Cc2ccc(F)cc2)cc1 [Compound S06, 2-(4-(Allyloxy)phenyl)-1-(4-fluorobenzyl)-1H-benzo[d]imidazole] | –
> 1000 | CCN(CCCNC(=O)C1CCN(c2nc3ccccc3n2Cc2ccc(C)cc2)CC1)c1cccc(C)c1 [Compound 24] | –
> 1000 | CC(C)(C)OC(=O)N1CCC(C(COc2ccc(-c3nc4ccccc4n3Cc3ccccc3)cc2)n2c(-c3ccccc3)nc3ccccc32)CC1 (stereo not drawn) [Compound 08, tert-Butyl-4-(2-(4-(1-benzyl-1H-benzo[d]imidazol-2-yl)phenoxy)-1-(2-phenyl-1H-benzo[d]imidazol-1-yl)ethyl)piperidine-1-carboxylate] | –
100 to 1000 | CN(CCCNC(=O)C1CCN(c2nc3ccccc3n2Cc2ccc(F)cc2)CC1)C1CCCCC1 [Compound 21] | –
25 to 100 | Oc1ccc(-c2nc3ccccc3n2Cc2ccccc2)cc1 [Compound S07, 4-(1-Benzyl-1H-benzo[d]imidazol-2-yl)phenol] | –
25 to 100 | Cc1ccccc1Cn1c(CC(C)(C)C)nc2ccccc21 [Compound 34] | –
100 to 1000 | CC(C)Cc1nc2ccccc2n1Cc1ccccc1 [Compound 32] | –
100 to 1000 | O=C(c1ccccc1Cl)N1CCN(c2nc3ccccc3n2Cc2ccccc2)CC1 [Compound 46] | –
– | COc1ccc(Cc2nc3ccccc3n2Cc2ccccc2)cc1 [Compound 27] | Kd (PDEδ farnesyl pocket): 100 to 1000 nM
– | c1ccc(Cn2c(CN3CCCCCC3)nc3ccccc32)cc1 [Compound 40] | Kd (PDEδ farnesyl pocket): 100 to 1000 nM
100 to 1000 | c1ccc(CCn2c(-c3ccco3)nc3ccccc32)cc1 [Compound 26] | –
> 1000 | Oc1ccc(-c2nc3ccccc3n2Cc2ccccn2)cc1 [Compound S08, 4-(1-(Pyridin-2-ylmethyl)-1H-benzo[d]imidazol-2-yl)phenol] | –
